Assay results from patent US5550128A, “Enantiomers of gamma methylene 10-deaza aminopterin and process for preparing the same” (priority 1994, dated 1996).

Key:
[1] = tested on: human tumor cell lines in culture; test: Human Tumor Disease Oriented in vitro screen, panel as a whole; assay type: cell-based; details: relative to methotrexate, or enantiomer comparison
Method: (§1) Further, by analogy to methotrexate (rheumatrex) L-MDAM should be useful in the treatment of autoimmune diseases such as rheumatoid arthritis and inflammatory diseases such as asthma.
(§2) A 48 h continuous drug exposure protocol was used combined with an SR13
(§3) protein assay to estimate cell growth or viability.

[2] = target: T1, Recombinant Human Dihydrofolate Reductase (Homo sapiens, UniProt P00374); test: Inhibition of recombinant human dihydrofolate reductase, spectrophotometric enzyme assay; assay type: biochemical
T1 sequence (P00374 1-187): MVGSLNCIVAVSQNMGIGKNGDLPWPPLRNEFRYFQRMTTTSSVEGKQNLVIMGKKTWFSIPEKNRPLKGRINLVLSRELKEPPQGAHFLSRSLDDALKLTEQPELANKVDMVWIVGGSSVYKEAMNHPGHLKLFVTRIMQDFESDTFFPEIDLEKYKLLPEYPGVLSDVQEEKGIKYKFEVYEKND
Method: Enzyme assay was performed spectrophotometrically in a solution containin
50 μM dihydrofolate, 80 μM NADPH, 0.05 M Tris HCl. 0.01 M
2mercaptoethanol and 0.001 M EDTA at pH 7.4 at 30°. The reaction
Pure human recombinant enzyme was used.

[3] = tested on: transport of radiolabeled folinic acid to H35 hepatoma cells; test: Inhibition of transport of radiolabeled folinic acid to H35 hepatoma cells; assay type: cell-based
Method: (§4) Independent, further evidences to the identity of L-MDAM as the biologically active enantiomer of the racemic mixture of D,L-MDAM (previously described as MDAM; Ref, U.S. Pat. No. 4,996,207) was obtained by the following data. […] The cytotoxicity of L-MDAM versus D,L-MDAM was also compared. […] The l50 value for growth inhibition (Gl50) was 39 nM for D,L-MDAM. […] Taken together, these unexpected and novel results establish that the biologically active compound present in the racemic mixture of MDAM is the L-enantiomer described in claim number 1.

[4] = tested on: H35 hepatoma cells; test: Growth inhibition of H35 hepatoma cells in culture; assay type: cell-based
Method: as §4

[5] = tested on: U-251 (CNS cancer); test: Human Disease Oriented in vitro Antitumor Screen; assay type: cell-based; details: U-251 (Table 5), read-out: Gl50 (the source's name)
Source text: (§5) It is also active against the adriamycin resistant MCF-7 human breast cancer cells (Gl50 -=74×10^-9).
(§6) Human Disease Oriented in vitro Antitumor Screen

[6] = tested on: TK-10 (renal cancer); test: Human Disease Oriented in vitro Antitumor Screen; assay type: cell-based; details: TK-10 (Table 5), read-out: Gl50 (the source's name)
Source text: as §5, §6

[7] = tested on: SN-12C (renal cancer); test: Human Disease Oriented in vitro Antitumor Screen; assay type: cell-based; details: SN12C, SN-12C (Table 5), read-out: Gl50 (the source's name)
Source text: as §5, §6

[8] = tested on: M14 (melanoma); test: Human Disease Oriented in vitro Antitumor Screen; assay type: cell-based; details: M14 (Table 5), read-out: Gl50 (the source's name)
Source text: as §5, §6

[9] = tested on: MDA-MB-231/ATCC (breast cancer); test: Human Disease Oriented in vitro Antitumor Screen; assay type: cell-based; details: MDA-MB-231/ATCC (Table 5), read-out: Gl50 (the source's name)
Source text: as §5, §6

[10] = tested on: IGROVI (ovarian cancer); test: Human Disease Oriented in vitro Antitumor Screen; assay type: cell-based; details: IGROVI (Table 5), read-out: Gl50 (the source's name)
Source text: as §5, §6

[11] = tested on: RPMI-8226 (leukemia); test: Human Disease Oriented in vitro Antitumor Screen; assay type: cell-based; details: RPMI-8226 (Table 5), read-out: Gl50 (the source's name)
Source text: as §5, §6

[12] = tested on: HCT-15 (colon cancer); test: Human Disease Oriented in vitro Antitumor Screen; assay type: cell-based; details: HCT-15 (Table 5), read-out: Gl50 (the source's name)
Source text: as §5, §6

[13] = tested on: DU 145 (prostate cancer); test: Human Disease Oriented in vitro Antitumor Screen; assay type: cell-based; details: DU 145 (Table 5), read-out: Gl50 (the source's name)
Source text: as §5, §6

[14] = tested on: MCF-7 (breast cancer); test: Human Disease Oriented in vitro Antitumor Screen; assay type: cell-based; details: MCF7, MCF-7 (Table 5), read-out: Gl50 (the source's name)
Source text: as §5, §6

[15] = tested on: HOP-62 (non-small cell lung cancer); test: Human Disease Oriented in vitro Antitumor Screen; assay type: cell-based; details: HOP-62 (Table 5), read-out: Gl50 (the source's name)
Source text: as §5, §6

[16] = tested on: ZIACC-62 (melanoma); test: Human Disease Oriented in vitro Antitumor Screen; assay type: cell-based; details: ZIACC-62 (Table 5), read-out: Gl50 (the source's name)
Source text: as §5, §6

[17] = tested on: OVCAR-5 (ovarian cancer); test: Human Disease Oriented in vitro Antitumor Screen; assay type: cell-based; details: OVCAR-5 (Table 5), read-out: Gl50 (the source's name)
Source text: as §5, §6

[18] = tested on: MDA-N (breast cancer); test: Human Disease Oriented in vitro Antitumor Screen; assay type: cell-based; details: MDA-N (Table 5), read-out: Gl50 (the source's name)
Source text: as §5, §6

[19] = tested on: NCI-H460 (non-small cell lung cancer); test: Human Disease Oriented in vitro Antitumor Screen; assay type: cell-based; details: NCI-H460 (Table 5), read-out: Gl50 (the source's name)
Source text: as §5, §6

[20] = tested on: adriamycin resistant MCF-7 human breast cancer cells (MCF-7/ADR-RBS); test: Human Disease Oriented in vitro Antitumor Screen, adriamycin resistant cells; assay type: cell-based; details: MCF7, read-out: Gl50 (the source's name)
Source text: as §5, §6

[21] = tested on: HL-60 (TB) (leukemia); test: Human Disease Oriented in vitro Antitumor Screen; assay type: cell-based; details: HL-60 TB (Table 5), read-out: Gl50 (the source's name)
Method: as §1, §2, §3

[22] = tested on: SW-620 (colon cancer); test: Human Disease Oriented in vitro Antitumor Screen; assay type: cell-based; details: SW-620 (Table 5), read-out: Gl50 (the source's name)
Method: as §1, §2, §3

[23] = tested on: CCRF-CEM (leukemia); test: Human Disease Oriented in vitro Antitumor Screen; assay type: cell-based; details: CCRF-CEM (Table 5), read-out: Gl50 (the source's name)
Method: as §1, §2, §3

[24] = tested on: SF-268; test: Human Disease Oriented in vitro Antitumor Screen; assay type: cell-based; details: SF-268 (Table 5), read-out: Gl50 (the source's name)
Method: as §1, §2, §3

[25] = tested on: HCT-116 (colon cancer); test: Human Disease Oriented in vitro Antitumor Screen; assay type: cell-based; details: HCT-116 (Table 5), read-out: Gl50 (the source's name)
Method: as §1, §2, §3

[26] = tested on: HT-29 (colon cancer); test: Human Disease Oriented in vitro Antitumor Screen; assay type: cell-based; details: HT-29 (Table 5), read-out: Gl50 (the source's name)
Method: as §1, §2, §3

[27] = tested on: ACHN (renal cancer); test: Human Disease Oriented in vitro Antitumor Screen; assay type: cell-based; details: ACHN (Table 5), read-out: Gl50 (the source's name)
Method: as §1, §2, §3

[28] = tested on: LOX IM VI (melanoma); test: Human Disease Oriented in vitro Antitumor Screen; assay type: cell-based; details: LOX IMVI, LOX MI VI (Table 5), read-out: Gl50 (the source's name)
Method: as §1, §2, §3

[29] = tested on: SF-539; test: Human Disease Oriented in vitro Antitumor Screen; assay type: cell-based; details: SF-539 (Table 5), read-out: Gl50 (the source's name)
Method: as §1, §2, §3

[30] = tested on: MOLT-4 (leukemia); test: Human Disease Oriented in vitro Antitumor Screen; assay type: cell-based; details: MOLT-4 (Table 5), read-out: Gl50 (the source's name)
Method: as §1, §2, §3

[31] = tested on: SF-295; test: Human Disease Oriented in vitro Antitumor Screen; assay type: cell-based; details: SF-295 (Table 5), read-out: Gl50 (the source's name)
Method: as §1, §2, §3

[32] = tested on: SR (leukemia); test: Human Disease Oriented in vitro Antitumor Screen; assay type: cell-based; details: SR (Table 5), read-out: Gl50 (the source's name)
Method: as §1, §2, §3

[33] = tested on: OVCAR-8 (ovarian cancer); test: Human Disease Oriented in vitro Antitumor Screen; assay type: cell-based; details: OVCAR-8 (Table 5), read-out: Gl50 (the source's name)
Method: as §1, §2, §3

[34] = tested on: 786-O (renal cancer); test: Human Disease Oriented in vitro Antitumor Screen; assay type: cell-based; details: 786-0, 786-O (Table 5), read-out: Gl50 (the source's name)
Method: as §1, §2, §3

[35] = animals; relative to MTX; cited from earlier work
[36] = tested on: L1210 leukemia; details: animals bearing L1210 leukemia; cited from earlier work
[37] = tested on: P388 leukemia; details: animals bearing P388 leukemia; cited from earlier work

In the case of `C=C(C[C@H](NC(=O)c1ccc(CCc2cnc3nc(N)nc(N)c3n2)cc1)C(=O)O)C(=O)O` [L-MDAM, 4-amino-4-deoxy-10-deazapteroyl-γ-methylene-L-glutamic acid], the “activity/potency in inhibiting growth of human tumor cell lines (in words)” value [1] is reported as “biologically active enantiomer of D,L-MDAM”, the IC50 ([2]; 50 μM dihydrofolate, 80 μM NADPH, pH 7.4, 30°) is reported as 22 nM and the “IC50 Compound/IC50 MTX” value ([2]; ratio to MTX) is reported as 1.29. The “DHFR inhibitory activity (comparison in words)” value ([2]; relative to MTX or D,L-MDAM) was “exactly twice as active as D,L-MDAM”, the IC50 ([3]; H35 hepatoma cells, read-out: l50 value, inhibition of transport of radiolabeled folinic acid) was 2300 nM and the “reduction in l50 value (transport) versus D,L-MDAM” value ([3]; L-MDAM versus D,L-MDAM) was “approximately one-half”. For the same compound, the “cytotoxicity versus D,L-MDAM” value ([4]; H35 hepatoma cells) was “Dramatic and unexpected potentiation of activity”, the IC50 ([4]; H35 hepatoma cells in culture, identical conditions, read-out: l50 value for growth inhibition (Gl50)) was 8 nM and the IC50 [5] was < 10 nM. The IC50 [6] was < 10 nM, the IC50 [7] was < 10 nM and the IC50 [8] was < 10 nM. For the same compound, the IC50 [9] was < 10 nM, the IC50 [10] was < 10 nM and the IC50 [11] was < 10 nM. For the same compound, the IC50 [12] was < 10 nM, the IC50 [13] was < 10 nM and the IC50 [14] was < 10 nM. For the same compound, the IC50 [15] was < 10 nM, the IC50 [16] was < 10 nM and the IC50 [17] was < 10 nM. For the same compound, the IC50 [18] was < 10 nM, the IC50 [19] was < 10 nM and the IC50 [20] was 74 nM. The IC50 [21] was < 10 nM, the IC50 [22] was < 10 nM and the IC50 [23] was < 10 nM. The IC50 [24] was < 10 nM, the IC50 [25] was < 10 nM and the IC50 [26] was < 10 nM. The IC50 [27] was < 10 nM, the IC50 [28] was < 10 nM and the IC50 [29] was < 10 nM. The IC50 [30] was < 10 nM, the IC50 [31] was < 10 nM and the IC50 [32] was < 10 nM. For the same compound, the IC50 [33] was < 10 nM and the IC50 [34] was < 10 nM.
For `C=C(CC(NC(=O)c1ccc(C(CC)Cc2cnc3nc(N)nc(N)c3n2)cc1)C(=O)O)C(=O)O` (centres unmarked) [MEDAM, γ-methylene-10-ethyl-10-deazaaminopterin], the tolerability [35] is given as “tolerated by animals at higher doses”, the “in vivo antitumor activity relative to MTX” value [36] is given as “superior in vivo antitumor activity relative to the polyglutamylatable MTX” and the “in vivo antitumor activity relative to MTX” value [37] is given as “superior in vivo antitumor activity relative to the polyglutamylatable MTX”.
